Patent publication US4456601A, “3-Chloro-pregnane derivatives and a process for the preparation thereof” (Richter Gedeon Vegyeszeti Gyar Rt., priority 1981, dated 1984)
Like-named read-outs stand apart in the source and are kept apart here.

Legend:
[1] = target: T1, rat liver glucocorticoid receptors (Rattus norvegicus, UniProt P06536); experiment: Affinity to rat liver glucocorticoid receptors (method of Baxter et al.); format: binding
T1 construct: from tissue; host or cells: rat liver
T1 sequence (P06536 1-795): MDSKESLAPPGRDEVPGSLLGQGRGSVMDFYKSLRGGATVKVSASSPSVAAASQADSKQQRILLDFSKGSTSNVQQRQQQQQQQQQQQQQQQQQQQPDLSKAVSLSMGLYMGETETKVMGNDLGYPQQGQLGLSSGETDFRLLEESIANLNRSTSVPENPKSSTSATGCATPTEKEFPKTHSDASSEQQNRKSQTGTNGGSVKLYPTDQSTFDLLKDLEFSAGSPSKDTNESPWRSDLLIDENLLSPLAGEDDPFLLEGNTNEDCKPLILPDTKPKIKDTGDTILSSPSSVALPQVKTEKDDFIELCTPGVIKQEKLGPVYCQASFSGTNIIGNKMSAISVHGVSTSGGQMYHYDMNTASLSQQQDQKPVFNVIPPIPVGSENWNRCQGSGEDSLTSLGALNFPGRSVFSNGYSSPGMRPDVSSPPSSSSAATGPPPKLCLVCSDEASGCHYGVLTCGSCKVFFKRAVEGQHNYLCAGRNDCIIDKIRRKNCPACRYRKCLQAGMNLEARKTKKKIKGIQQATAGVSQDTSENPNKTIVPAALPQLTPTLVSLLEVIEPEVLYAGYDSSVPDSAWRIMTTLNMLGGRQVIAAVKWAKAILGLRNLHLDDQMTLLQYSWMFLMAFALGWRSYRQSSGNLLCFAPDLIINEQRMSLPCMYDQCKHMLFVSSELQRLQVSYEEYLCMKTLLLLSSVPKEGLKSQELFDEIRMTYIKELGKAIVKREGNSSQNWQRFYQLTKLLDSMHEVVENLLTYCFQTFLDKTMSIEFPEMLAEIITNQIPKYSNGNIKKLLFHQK
Excerpt: A. Munck and K. Leung: "Receptors and Mechanism of Action of Steroid Hormones", Ed.

[2] = test system: thymus weight; experiment: Thymus involution (reduction of thymus weight) in rats; format: in vivo
Experimental: (§1) It is known that glucocorticoids cause thymus involution [O. Greengard, R. Machovich: "Hydrocortisone Regulation of Thymidine Kinase in Thymus Involution and Hematopoietic Tissues", Biochem. Biophys. Acta 286, 382-388 (1972)], 50% reduction of thymus weight was observed on chickens with a dose of 0.01 mg/100 g and on rats with a dose of 0.001 mg/100 g for both TCA and 3-chloro-TCA.

[3] = target: T1, rat liver glucocorticoid receptors; conditions: on the basis of literature data (Munck and Leung); read-out: apparent dissociation constant; cited from earlier work
[4] = test system: thymus weight; experiment: Thymus involution (reduction of thymus weight) in chickens; format: in vivo
Experimental: as §1

[5] = test system: carrageenin-induced planter oedema; experiment: Inhibition of carrageenin-induced planter oedema (systemic antiphlogistic effect); format: in vivo
Excerpt: (§2) Systemic antiphlogistic effect
(a) Inhibition of carrageenin-induced planter oedema [Winter et al.: J. Pharm. Exp. Therap. […]]

[6] = test system: granuloma pouch; experiment: Local pouch test according to Selye (local antiphlogistic effect); format: in vivo
Excerpt: (§3) Local antiphlogistic effect
(a) Local pouch test according to Selye [Bianchetti et al.: Arzneim. Forsch. 27, 2096 (1977)]

[7] = test system: cotton granuloma; experiment: Cotton granuloma test (systemic antiphlogistic effect); format: in vivo
Excerpt: as §2
(c) Cotton granuloma test [C. A. Winter et al: J. Pharm. Exp. Therap. 141, 369 (1963)]

[8] = test system: cotton granuloma; experiment: Local cotton granuloma test (local antiphlogistic effect); format: in vivo
Excerpt: as §3
(b) Local cotton granuloma test [B. Silvestrini: Arzneim. Forsch. 19, 30 (1969)]

[9] = test system: ear inflammation provoked by croton oil; experiment: Inhibition of ear inflammation provoked by croton oil (local antiphlogistic effect); format: in vivo
Excerpt: as §3
(c) Inhibition of ear inflammation provoked by croton oil [Tonelli et al.: Endocrinology 77, 625 (1965)]

[10] = test system: granuloma pouch; experiment: Granuloma pouch test according to Selye (systemic antiphlogistic effect); format: in vivo
Excerpt: as §2
(b) Granuloma pouch test according to Selye [J. Selye: Recent Progr. Horm. Res. 8, 117 (1953)]

[11] = rat liver glucocorticoid receptors, read-out: apparent dissociation constant

SMILES | Kd [1, 11] [µM] | dose giving 50% reduction of thymus weight [2] [mg/100 g] | dose giving 50% reduction of thymus weight [4] [mg/100 g] | Inhibition % ([5]; 2 mg/kg p.o.) [%] | Inhibition % ([5]; 6 mg/kg p.o.) [%] | Inhibition % ([6]; 0.033 mg/pouch) [%] | Inhibition % ([6]; 0.10 mg/pouch) [%] | Inhibition % ([7]; 0.5 mg/kg s.c.) [%] | Inhibition % ([7]; 1.5 mg/kg s.c.) [%] | Inhibition % ([8]; 0.033 mg/cotton) [%] | Inhibition % ([8]; 0.10 mg/cotton) [%] | Inhibition % ([9]; 0.02 mg/ml) [%] | Inhibition % ([9]; 0.10 mg/ml) [%] | Inhibition % ([10]; 0.5 mg/kg s.c.) [%] | Inhibition % ([10]; 1.5 mg/kg s.c.) [%] | also measured
CC1(C)O[C@@H]2C[C@H]3[C@@H]4CC(Br)=C5C=C(Cl)C=C[C@]5(C)[C@@]4(F)[C@@H](O)C[C@]3(C)[C@]2(C(=O)CO)O1 [3-chloro-6-bromo-TCA, 3-chloro-6-bromo-9α-fluoro-11β,16α,17α,21-tetrahydroxy-pregna-1,3,5-triene-20-one-16,17-acetonide] | 0.06 |  |  |  |  |  |  |  |  |  |  |  |  |  |  | 
CC1(C)O[C@@H]2C[C@H]3[C@@H]4CC(F)=C5C=C(Cl)C=C[C@]5(C)[C@@]4(F)[C@@H](O)C[C@]3(C)[C@]2(C(=O)CO)O1 [Example 3-chloro-FCA, 3-chloro-6,9α-difluoro-11β,16α,17α,21-tetrahydroxy-pregna-1,3,5-triene-20-one-16,17-acetonide] | 0.025 |  |  |  |  |  |  |  |  |  |  |  |  |  |  | 
CC1(C)O[C@@H]2C[C@H]3[C@@H]4CCC5=CC(=O)C=C[C@]5(C)[C@@]4(F)[C@@H](O)C[C@]3(C)[C@]2(C(=O)CO)O1 [TCA, 9α-fluoro-11β,16α,17α,21-tetrahydroxy-pregna-1,4-diene-3,20-dione-16,17-acetonide, reference compound] |  | 0.001 | 0.01 |  |  |  |  |  |  |  |  |  |  |  |  | Kd [3]: 0.01 µM
CC(=O)OCC(=O)[C@@]12OC(C)(C)O[C@@H]1C[C@H]1[C@@H]3CC=C4C=C(Cl)C=C[C@]4(C)[C@@]3(F)[C@@H](O)C[C@@]12C [3-Chloro-TCA-21-acetate, 3-chloro-9α-fluoro-11β,16α,17α,21-tetrahydroxy-pregna-1,3,5-triene-20-one-16,17-acetonide-21-acetate] |  |  |  | 8.9 | 9.6 | 12.4 | 26.3 | 33.0 | 91.0 | 52.4 | 35.3 | 10.0 | 17.8 | 56.6 | 73.3 | 
CC1(C)O[C@@H]2C[C@H]3[C@@H]4C[C@H](F)C5=CC(=O)C=C[C@]5(C)[C@@]4(F)[C@@H](O)C[C@]3(C)[C@]2(C(=O)CO)O1 [fluocinolon-acetonide, 6α,9α-difluoro-11β,16α,17α,21-tetrahydro-pregna-1,4-diene-3,20-dione-16,17-acetonide, reference compound] |  |  |  |  |  |  |  |  |  |  |  |  |  |  |  | Kd [1]: 0.015 µM
CC1(C)O[C@@H]2C[C@H]3[C@@H]4CC=C5C=C(Cl)C=C[C@]5(C)[C@@]4(F)[C@@H](O)C[C@]3(C)[C@]2(C(=O)CO)O1 [Example 3-Chloro-TCA, 3-chloro-9α-fluoro-11β,16α,17α,21-tetrahydroxy-pregna-1,3,5-triene-20-one-16,17-acetonide] | 0.03 | 0.001 | 0.01 | 30.2 | 38.7 | 26.0 | 32.3 | 22.0 | 26.0 | 24.1 | 51.4 | 30.0 | 52.9 | 90.8 | 90.1 | 
